Results from US5928932A, “Isolated gene encoding an enzyme with UDP-glucose pyrophosphorylase and phosphoglucomutase activities from Cyclotella cryptica” (priority 1996, dated 1999).

Molecular target: T1, purified UGPase/PGMase protein (Cyclotella cryptica, UniProt A0ABD3PLY7)
T1 construct: both domains act
Assay type: biochemical
Settings: determined via double reciprocal plots; glucose-6-phosphate versus glucose-1-phosphate as substrate
Procedure: P-4252) were added to each reaction and incubated for one hour at 30° C. The reaction mixtures were spotted onto separate 2.5 cm DE81 filter disks (Whatman Inc.; Fairfield, N.J.), which were then washed in five consecutive batches of water (200 mL each). The radioactivity of each filter was determined by liquid scintillation counting.

T1 sequence (A0ABD3PLY7 entry or part of it R291K): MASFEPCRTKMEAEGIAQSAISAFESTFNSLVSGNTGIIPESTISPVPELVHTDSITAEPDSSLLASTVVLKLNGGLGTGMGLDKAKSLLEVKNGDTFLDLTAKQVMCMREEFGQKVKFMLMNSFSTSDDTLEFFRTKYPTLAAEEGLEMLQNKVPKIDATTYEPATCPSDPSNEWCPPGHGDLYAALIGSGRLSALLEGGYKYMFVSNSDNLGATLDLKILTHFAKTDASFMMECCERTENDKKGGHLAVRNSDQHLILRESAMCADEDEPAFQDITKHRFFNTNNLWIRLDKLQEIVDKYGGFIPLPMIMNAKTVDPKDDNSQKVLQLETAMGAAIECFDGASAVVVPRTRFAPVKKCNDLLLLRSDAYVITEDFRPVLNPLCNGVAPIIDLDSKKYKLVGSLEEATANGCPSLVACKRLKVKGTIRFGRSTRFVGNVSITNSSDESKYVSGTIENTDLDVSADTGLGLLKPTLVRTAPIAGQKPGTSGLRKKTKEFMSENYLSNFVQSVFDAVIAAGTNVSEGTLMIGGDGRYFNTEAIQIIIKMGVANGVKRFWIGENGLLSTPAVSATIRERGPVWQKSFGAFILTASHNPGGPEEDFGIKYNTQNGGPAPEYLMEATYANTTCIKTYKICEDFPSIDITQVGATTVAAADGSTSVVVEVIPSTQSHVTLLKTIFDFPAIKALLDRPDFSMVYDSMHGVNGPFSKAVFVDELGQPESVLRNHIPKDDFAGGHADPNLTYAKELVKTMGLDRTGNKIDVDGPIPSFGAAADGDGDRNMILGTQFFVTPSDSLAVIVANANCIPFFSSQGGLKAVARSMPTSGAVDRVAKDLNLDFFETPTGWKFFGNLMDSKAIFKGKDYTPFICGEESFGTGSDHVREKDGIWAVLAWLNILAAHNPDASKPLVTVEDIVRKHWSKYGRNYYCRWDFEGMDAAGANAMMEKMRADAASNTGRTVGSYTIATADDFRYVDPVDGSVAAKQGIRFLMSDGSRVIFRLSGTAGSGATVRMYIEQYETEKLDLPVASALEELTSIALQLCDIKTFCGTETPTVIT

SMILES: O=P(O)(O)OC[C@H]1OC(O)[C@H](O)[C@@H](O)[C@@H]1O (stereo partly shown) [glucose-6-phosphate]
- maximum velocity of UDP-glucose formation, fold less than for glucose-1-phosphate: 13 fold
